Assay results reported in patent US11446317B2, “Inositol phosphate-containing composition” (OTSUKA PHARMACEUTICAL CO., LTD., priority 2017, dated 2022).
Where “and” joins values, the source holds several entries; their conditions need not be identical. Identical values can stand only once.

Assays:
xanthine oxidase = conditions: Non-Patent Document 4, cited from earlier work
healthy adults [1] = assay: Low intake test (12 weeks, 1 bottle per day) in healthy adults; type: in vivo, human; conditions: for change in serum iron level: low intake test
Protocol: Subjects (39 healthy adults: 20 to 65 years of age, 13 men, premenopausal women, and 13 postmenopausal women) ingested 1 bottle of a test beverage per day for 12 weeks. The test beverage contains 600 mg of phytic acid per bottle (50 mL). Before and 4 weeks, 8 weeks, 12 weeks, and 14 weeks (i.e. 2 weeks after the last intake) after the start of the intake, blood of fasting was collected. The collected blood was measured for each test item by an analysis contractor. Tests for each endpoint compared to 0 week were performed with a paired t-test. Two-sided test was performed with a significance level of 5%.

[2] = target: T1, Phosphatase, Alkaline, Calf Intestine (Bos taurus, UniProt P19111); assay: Alkaline phosphatase inhibition (IMP to inosine); type: biochemical; conditions: sample solution 10 mg/mL, pH 6.2 to 6.4, 37° C. 30 minutes
T1 construct: purchased Merck
T1 sequence (P19111 20-506): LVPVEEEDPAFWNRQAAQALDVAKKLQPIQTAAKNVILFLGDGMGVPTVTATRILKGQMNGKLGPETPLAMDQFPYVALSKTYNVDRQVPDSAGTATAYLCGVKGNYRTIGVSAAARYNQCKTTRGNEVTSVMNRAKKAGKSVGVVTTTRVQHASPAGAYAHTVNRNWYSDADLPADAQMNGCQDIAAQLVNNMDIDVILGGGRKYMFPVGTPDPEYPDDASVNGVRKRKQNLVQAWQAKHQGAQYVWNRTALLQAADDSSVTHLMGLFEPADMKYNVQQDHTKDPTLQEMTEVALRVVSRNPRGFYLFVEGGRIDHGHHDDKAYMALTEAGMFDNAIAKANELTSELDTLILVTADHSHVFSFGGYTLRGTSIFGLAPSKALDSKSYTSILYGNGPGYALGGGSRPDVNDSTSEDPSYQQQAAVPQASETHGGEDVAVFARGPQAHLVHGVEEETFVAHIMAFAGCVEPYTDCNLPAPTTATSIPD
Protocol: Phosphatase, Alkaline, Calf Intestine (Merck) dissolved in the assay buffer (2.37% aqueous solution of Trizma® maleate (Sigma-Aldrich)) at 5.0 U/mL was used as the enzyme solution.
Inosine monophosphate (IMP) (Sigma-Aldrich) dissolved in the assay buffer at 9 mM was used as the substrate solution.
Phytic acid and the assay buffer were mixed, and the pH was adjusted to 6.2 to 6.4 with sodium hydroxide to obtain a sample solution (10 mg/mL). The control solution was prepared by adjusting the assay buffer to pH 6.2 to 6.4 with sodium hydroxide.
(§1) Enzymatic reaction was performed using a 96 well plate (Thermo Fisher Scientific) in the following manner.
The sample solution or control solution (100 μL/well), the substrate solution (100 μL/well), and the enzyme solution (100 μL/well) were added, and the enzyme reaction was performed at 37° C. for 30 minutes. A 20 μL aliquot of the reaction solution was transferred to multi-screen FITS HV (Merck Millipore), and the reaction was stopped by adding the stop solution (0.33 M HClO4, 180 μl/well). Centrifuge (1080×g for 10 minutes at room temperature) was performed, and the filtrate was subjected to high performance liquid chromatography (HPLC) to determine the amounts of inosine monophosphate and inosine.
The analytical conditions of HPLC are shown below.
Detector: SPD-M 30 A (Shimadzu Corporation) […]

[3] = test system: alkaline phosphatase and 5′nucleotidase (rat small intestine powder); assay: Purine nucleotide metabolism inhibition (IMP to inosine) using rat small intestine powder; type: biochemical; conditions: pH 6.2 to 6.4, 37° C. 30 minutes
Protocol: The rat small intestine powder contains alkaline phosphatase and 5′nucleotidase as the main digestive enzymes. The inhibition of metabolism of purine nucleotides to purine nucleosides by phytic acid was investigated.
A 100 mg/mL of solution of rat small intestine powder (Clare Japan, Inc.) in the assay buffer (2.37% aqueous solution of Trizma® maleate (Sigma-Aldrich)) was used as the enzyme solution. Inosine monophosphate (IMP) (Sigma-Aldrich) (9 mM) in the assay buffer was used as the substrate solution.
Phytic acid and the assay buffer were mixed, and the pH was adjusted to 6.2 to 6.4 with sodium hydroxide to obtain the sample solutions of each concentration. The control solution was prepared by adjusting the assay buffer to pH 6.2 to 6.4 with sodium hydroxide.
as §1
The sample solution or control solution (100 μL/well), the substrate solution (100 μL/well), and the enzyme solution (100 μL/well) were added, and the enzyme reaction was performed at 37° C. for 30 minutes. A 20 μL aliquot of the reaction solution was transferred to multi-screen HTS HV (Merck Millipore), and the reaction was stopped by adding the stop solution (0.33 M HClO4, 180 μL/well). […]

healthy adults [4] = assay: High intake test (5 weeks, 3 to 5 bottles per day) in healthy adults; type: in vivo, human; conditions: for change in serum iron level: high intake test
Protocol: The subjects (48 healthy adults: 20 to 65 years of age, 16 men, 16 premenopausal women, and 16 postmenopausal women) ingested 5 bottles per day (or 3 to 5 bottles per day depending on the subject's capacity) of test beverage. The test beverage contains 600 mg of phytic acid per bottle (50 mL). The duration of intake was 5 weeks. The first week being a time period to determine each subject's tolerable volume of test beverage, during which time the subjects ingested test beverages while increasing one bottle daily (Up to 5 bottles per day). If 5 bottles/day could not be taken due to taste, volume, etc., the intake volume was determined by each subject, and the intake volume on day 7 was taken as the tolerable volume for each subject, and each subject ingested this tolerable volume (3 to 5 bottles per day) during the remaining study period (4 weeks). Before and 3 weeks, 5 weeks, and 7 weeks (i.e. 2 weeks after the last intake) after the start of the intake, blood pressure of fasting was measured and blood of fasting was collected. The collected blood was measured for each test item by an analysis contractor. Tests for blood pressure, blood glucose, AST, and serum iron compared to 0 week were performed with a paired t-test, and tests for 1, 25-(OH)2-D compared to 0 week were performed with one-way ANOVA followed by Dunnet's multiple comparison method. A two-sided test was performed with a significance level of 5%. The analysis included 44 subjects excluding 2 subjects who withdrew their consent and 2 subjects who were unable to take more than 3 bottles of the test beverage.

[5] = ingestion of 1,400 mg of sodium phytate (1,000 mg as phytic acid); cited from earlier work

O=P(O)(O)O[C@H]1[C@H](OP(=O)(O)O)[C@@H](OP(=O)(O)O)[C@H](OP(=O)(O)O)[C@@H](OP(=O)(O)O)[C@H]1OP(=O)(O)O [phytic acid]
IC50 of inhibition of xanthine oxidase activity (conversion of xanthine to uric acid) (xanthine oxidase): ~19.8 g/L
IC50 (xanthine oxidase; read-out: IC50 of inhibition of xanthine oxidase activity (conversion of xanthine to uric acid)): ~30 mM
change in HbA1c level (healthy adults [1]; high HbA1c level group (5.5 or more at 0 week)): significant decrease
change in blood glucose level (healthy adults [1]; high blood glucose level group (86 or more at 0 week)): significant decrease
change in serum iron level (healthy adults [1]; high level group (132 or more at 0 week)): significant decreases
change in serum iron level (healthy adults [1]; low level group (90 or less at 0 week)): significant rises
change in serum iron level (healthy adults [1]; middle level group (90 to 132 at 0 week)): no large changes
inhibition of metabolism of inosine monophosphate to inosine by alkaline phosphatase [2]: inhibits the conversion of purine nucleotides into purine nucleosides
inhibition of metabolism of inosine monophosphate to inosine [3]: inhibits the conversion of purine nucleotides into purine nucleosides
change in 1,25-(OH)2-D level (healthy adults [4]; 5 weeks after ingestion compared with before ingestion): significant increase
change in diastolic blood pressure (healthy adults [4]; high diastolic blood pressure group (86.3 or more at 0 week)): significant decrease
change in serum iron level (healthy adults [4]; high level group (117 or more at 0 week)): significant decreases
change in serum iron level (healthy adults [4]; low level group (79 or less at 0 week)): significant rises
change in serum iron level (healthy adults [4]; middle level group (79 to 117 at 0 week)): no large changes
change in AST level (healthy adults [4]; high level group (21 or more at 0 week), 3, 5, and 7 weeks compared with before ingestion): significant decreases
change in systolic blood pressure (healthy adults [4]; high systolic blood pressure group (126 or more at 0 week)): significant decrease
change in diastolic blood pressure (healthy adults [4]; low diastolic blood pressure group (73.8 or less at 0 week)): no change
change in AST level (healthy adults [4]; low level group (17 or less at 0 week), 3 weeks compared with before ingestion, change not large): significant increase
change in systolic blood pressure (healthy adults [4]; low systolic blood pressure group (115.5 or less at 0 week)): no change
change in diastolic blood pressure (healthy adults [4]; middle diastolic blood pressure group (73.8 to 86.3 at 0 week)): no change
change in systolic blood pressure (healthy adults [4]; middle systolic blood pressure group (115.5 to 126 at 0 week)): significant change but it was not large

O=P([O-])([O-])O[C@H]1[C@H](OP(=O)([O-])O)[C@H](OP(=O)([O-])[O-])[C@H](OP(=O)([O-])O)[C@@H](OP(=O)([O-])[O-])[C@@H]1OP(=O)([O-])O.[Na+].[Na+].[Na+].[Na+].[Na+].[Na+].[Na+].[Na+].[Na+] [sodium phytate]
blood phytic acid concentration at the maximum [5]: 0.12 mg/L and 0.181 μM
